Literature values in patent EP1854876A2, “Genetically engineered glutaminase and its use in antiviral and anticancer therapy” (ME MEDICAL ENZYMES AG, priority 1992, dated 1994).

Assays:
[1] = target: Pseudomonas 7A glutaminase-asparaginase (Pseudomonas sp., UniProt P10182); settings: described as low
E. coli glutaminase A = E. coli glutaminase A (Escherichia coli, UniProt P77454); settings: described as high; substrate not given
[2] = tested on: known mammalian glutaminase enzymes; settings: described as high; substrate not given
E. coli glutaminase B = E. coli glutaminase B (Escherichia coli, UniProt P0A6W0); settings: described as high; substrate not given
Sequence of E. coli glutaminase B (P0A6W0 whole entry): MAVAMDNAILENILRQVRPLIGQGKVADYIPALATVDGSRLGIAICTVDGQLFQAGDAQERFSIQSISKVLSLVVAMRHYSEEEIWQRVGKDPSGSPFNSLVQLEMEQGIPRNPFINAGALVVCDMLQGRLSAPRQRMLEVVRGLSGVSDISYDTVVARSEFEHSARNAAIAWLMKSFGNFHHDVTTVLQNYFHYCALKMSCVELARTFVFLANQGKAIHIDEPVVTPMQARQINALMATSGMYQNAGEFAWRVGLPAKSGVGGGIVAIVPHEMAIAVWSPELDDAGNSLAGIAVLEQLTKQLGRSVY

[3] = tested on: E. coli asparaginase, ineffective form; settings: substrate not given

Sequence of Pseudomonas 7A glutaminase-asparaginase (P10182 whole entry): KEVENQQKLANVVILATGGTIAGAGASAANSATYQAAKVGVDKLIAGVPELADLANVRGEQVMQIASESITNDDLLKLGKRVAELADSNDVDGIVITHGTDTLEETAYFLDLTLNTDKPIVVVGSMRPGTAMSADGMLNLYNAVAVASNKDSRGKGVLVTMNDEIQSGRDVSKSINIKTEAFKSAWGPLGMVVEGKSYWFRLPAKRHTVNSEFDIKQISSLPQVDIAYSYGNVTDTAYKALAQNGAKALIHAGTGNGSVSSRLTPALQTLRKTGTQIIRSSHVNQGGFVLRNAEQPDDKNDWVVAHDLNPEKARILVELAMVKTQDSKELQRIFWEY
Sequence of E. coli glutaminase A (P77454 whole entry): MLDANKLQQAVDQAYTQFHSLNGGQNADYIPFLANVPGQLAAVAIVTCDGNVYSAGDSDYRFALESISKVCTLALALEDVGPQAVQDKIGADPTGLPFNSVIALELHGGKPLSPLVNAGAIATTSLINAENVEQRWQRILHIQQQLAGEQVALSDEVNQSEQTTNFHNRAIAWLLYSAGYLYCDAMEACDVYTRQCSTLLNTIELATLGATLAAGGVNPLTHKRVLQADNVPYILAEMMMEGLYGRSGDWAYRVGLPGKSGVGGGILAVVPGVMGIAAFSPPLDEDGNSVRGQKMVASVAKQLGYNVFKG

| Compound | KM for glutamine [1] | KM (E. coli glutaminase A) | KM [2] | KM (E. coli glutaminase B) | Km [3] [µM] |
| --- | --- | --- | --- | --- | --- |
| NC(=O)CC[C@H](N)C(=O)O [glutamine] | micromolar range | millimolar range | millimolar range | millimolar range |  |
| NC(=O)C[C@H](N)C(=O)O [asparagine] |  |  |  |  | > 1000 |
